Measured values published in publication PMC3427421 (2012).

Target: NR2A-containing NMDA receptor (NR2A subunit) (Rattus norvegicus, UniProt Q00959)
Type: cell-based

NR2A-containing NMDA receptor (NR2A subunit), sequence (Q00959 23-1464, other chains not shown): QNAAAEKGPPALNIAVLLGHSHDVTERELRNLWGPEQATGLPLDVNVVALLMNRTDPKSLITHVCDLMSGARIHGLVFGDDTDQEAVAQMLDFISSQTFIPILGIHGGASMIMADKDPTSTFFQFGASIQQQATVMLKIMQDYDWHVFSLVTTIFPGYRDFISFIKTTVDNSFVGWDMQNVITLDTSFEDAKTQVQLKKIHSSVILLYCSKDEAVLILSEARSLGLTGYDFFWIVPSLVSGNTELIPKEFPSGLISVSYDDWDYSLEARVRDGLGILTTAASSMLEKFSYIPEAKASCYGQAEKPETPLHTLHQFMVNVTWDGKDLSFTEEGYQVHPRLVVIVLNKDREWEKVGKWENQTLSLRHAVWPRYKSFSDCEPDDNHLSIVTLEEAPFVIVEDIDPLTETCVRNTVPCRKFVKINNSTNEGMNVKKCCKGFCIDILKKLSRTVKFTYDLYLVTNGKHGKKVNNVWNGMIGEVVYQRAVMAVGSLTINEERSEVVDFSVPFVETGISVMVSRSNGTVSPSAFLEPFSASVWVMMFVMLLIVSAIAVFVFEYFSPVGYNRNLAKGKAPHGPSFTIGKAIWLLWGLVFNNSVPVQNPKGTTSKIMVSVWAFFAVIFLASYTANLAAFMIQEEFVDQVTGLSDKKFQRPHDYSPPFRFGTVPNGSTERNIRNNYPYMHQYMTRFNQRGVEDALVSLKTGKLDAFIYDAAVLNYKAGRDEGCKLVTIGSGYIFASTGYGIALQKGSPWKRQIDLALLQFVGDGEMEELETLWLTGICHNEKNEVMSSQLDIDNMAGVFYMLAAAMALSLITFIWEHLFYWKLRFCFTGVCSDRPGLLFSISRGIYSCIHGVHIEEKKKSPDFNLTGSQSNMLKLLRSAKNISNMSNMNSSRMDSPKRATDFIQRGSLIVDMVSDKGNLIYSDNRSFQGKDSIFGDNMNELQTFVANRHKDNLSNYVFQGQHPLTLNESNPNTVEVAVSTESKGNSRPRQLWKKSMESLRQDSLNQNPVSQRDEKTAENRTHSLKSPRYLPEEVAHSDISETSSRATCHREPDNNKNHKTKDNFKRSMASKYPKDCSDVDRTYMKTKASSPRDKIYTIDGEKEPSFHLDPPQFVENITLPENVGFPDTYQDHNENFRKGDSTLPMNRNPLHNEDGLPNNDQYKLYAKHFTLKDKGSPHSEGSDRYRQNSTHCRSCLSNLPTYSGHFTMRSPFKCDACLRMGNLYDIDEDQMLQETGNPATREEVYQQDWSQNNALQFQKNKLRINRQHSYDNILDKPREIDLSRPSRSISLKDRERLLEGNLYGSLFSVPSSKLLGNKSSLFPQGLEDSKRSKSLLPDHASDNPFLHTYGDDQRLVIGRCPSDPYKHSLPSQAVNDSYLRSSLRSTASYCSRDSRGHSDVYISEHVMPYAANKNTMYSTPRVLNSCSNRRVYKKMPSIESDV

IC50: 130 ± 40 nM
SMILES: C[C@H](NC(c1cccc2[nH]c(=O)c(=O)[nH]c12)P(=O)(O)O)c1ccc(Br)cc1 (stereo partly drawn) [PEAQX, ({[(1S)-1-(4-bromophenyl)ethyl]amino}-(2,3-dioxo-1,4-dihydroquinoxalin-5-yl)methyl)phosphonic acid]
